{"source": "paper PMC5645029", "about": "(Journal of medicinal chemistry, 2017)", "key": {"[1]": {"molecular_target": "mMC1R (Mus musculus, UniProt Q01727)", "sequence (Q01727 whole entry)": "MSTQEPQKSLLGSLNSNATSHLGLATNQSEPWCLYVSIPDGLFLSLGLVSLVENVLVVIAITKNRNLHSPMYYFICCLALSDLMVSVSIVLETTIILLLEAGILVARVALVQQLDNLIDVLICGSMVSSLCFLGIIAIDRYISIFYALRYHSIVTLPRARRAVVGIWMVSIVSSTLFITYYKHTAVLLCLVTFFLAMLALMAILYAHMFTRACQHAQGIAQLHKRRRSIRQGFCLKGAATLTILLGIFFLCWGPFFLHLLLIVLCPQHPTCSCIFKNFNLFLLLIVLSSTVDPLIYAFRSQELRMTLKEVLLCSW", "experiment": "AlphaScreen cAMP assay, agonist activity", "conditions": "up to 100 μM concentrations"}, "[2]": {"molecular_target": "T1, mMC5R (Mus musculus, UniProt P41149)", "T1 sequence (P41149 whole entry)": "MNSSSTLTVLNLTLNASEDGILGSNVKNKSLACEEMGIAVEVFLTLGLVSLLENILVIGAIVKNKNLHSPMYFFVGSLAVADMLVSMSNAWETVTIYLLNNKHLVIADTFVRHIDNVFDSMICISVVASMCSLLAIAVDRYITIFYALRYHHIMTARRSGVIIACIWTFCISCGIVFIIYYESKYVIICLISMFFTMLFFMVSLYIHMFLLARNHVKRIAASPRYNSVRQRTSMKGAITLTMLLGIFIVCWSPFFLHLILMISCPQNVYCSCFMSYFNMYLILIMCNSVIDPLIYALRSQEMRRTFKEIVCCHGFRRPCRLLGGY", "experiment": "cell-based"}, "[3]": {"molecular_target": "T2, mMC4R (Mus musculus, UniProt P56450)", "T2 sequence (P56450 whole entry)": "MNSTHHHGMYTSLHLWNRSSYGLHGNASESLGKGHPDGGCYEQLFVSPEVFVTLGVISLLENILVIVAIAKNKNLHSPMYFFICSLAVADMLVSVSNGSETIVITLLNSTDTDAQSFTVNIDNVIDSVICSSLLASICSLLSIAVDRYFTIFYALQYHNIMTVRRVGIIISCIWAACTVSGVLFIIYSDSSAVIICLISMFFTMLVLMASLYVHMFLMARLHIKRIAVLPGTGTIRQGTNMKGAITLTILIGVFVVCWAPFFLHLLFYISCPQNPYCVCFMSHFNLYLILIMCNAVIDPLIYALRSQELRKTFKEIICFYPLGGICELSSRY", "experiment": "AlphaScreen cAMP assay, agonist activity", "conditions": "up to 100 μM concentrations"}, "[4]": {"molecular_target": "mMC3R (Mus musculus, UniProt P33033)", "sequence (P33033 whole entry)": "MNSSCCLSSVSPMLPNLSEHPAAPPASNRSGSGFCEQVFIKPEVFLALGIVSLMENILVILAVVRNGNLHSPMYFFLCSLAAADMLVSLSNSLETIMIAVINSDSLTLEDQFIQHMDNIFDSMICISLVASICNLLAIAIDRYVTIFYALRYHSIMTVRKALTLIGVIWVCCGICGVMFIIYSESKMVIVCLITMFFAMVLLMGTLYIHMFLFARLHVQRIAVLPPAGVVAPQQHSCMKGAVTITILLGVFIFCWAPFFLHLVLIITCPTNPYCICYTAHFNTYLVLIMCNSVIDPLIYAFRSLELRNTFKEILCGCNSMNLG", "experiment": "AlphaScreen cAMP assay, agonist activity", "conditions": "up to 100 μM concentrations"}, "[5]": {"molecular_target": "T1, mMC5R"}, "[6]": {"molecular_target": "T2, mMC4R", "conditions": "antagonist potency relative to 1"}, "[7]": {"molecular_target": "mouse melanocortin-3 receptor (mouse) (UniProt P33033)", "sequence (P33033 whole entry)": "as above"}, "[8]": {"molecular_target": "mouse melanocortin-1 receptor (mouse) (UniProt Q01727)", "sequence (Q01727 whole entry)": "as the sequence (Q01727 whole entry) above"}, "[9]": {"molecular_target": "mouse melanocortin-4 receptor (mouse) (UniProt P56450)", "sequence (P56450 whole entry)": "as the sequence (P56450 whole entry) above"}}, "note": "Non-standard residues stand in square brackets, D forms with d. Residues, ends and D or L forms follow the SMILES beside them.", "data": [{"molecule": "C[C@@H]1NC(=O)[C@H](CC(N)=O)NC(=O)[C@H](Cc2ccccc2)NC(=O)[C@H](Cc2ccccc2)NC(=O)[C@H](CCCNC(=N)N)NC(=O)[C@@H]2CCCN2C(=O)[C@H]2CCCN2C(=O)[C@H](C)NC1=O", "note": "[Peptide 24, c[Pro-Arg-Phe-Phe-Asn-Ala-Ala-DPro]] (cyclo(RFFNAA[dP]P))", "values": [{"measurement": "agonist activity at the MC1R (in words)", "setting": "[1]", "value": "no agonist activity"}]}, {"molecule": "C[C@@H]1NC(=O)[C@@H](CN)NC(=O)[C@H](Cc2ccccc2)NC(=O)[C@H](Cc2ccccc2)NC(=O)[C@H](CCCNC(=N)N)NC(=O)[C@@H]2CCCN2C(=O)[C@H]2CCCN2C(=O)[C@H](Cc2ccccc2)NC1=O", "note": "[Peptide 9, c[Pro-Arg-Phe-Phe-DDap-Ala-Phe-DPro]]", "values": [{"measurement": "EC50", "setting": "[2]", "value": 0.11, "unit": "µM"}, {"measurement": "agonist activity at the MC4R (in words)", "setting": "[3]", "value": "no agonist activity"}, {"measurement": "agonist activity at the MC3R (in words)", "setting": "[4]", "value": "no agonist activity"}, {"measurement": "agonist activity at the MC1R (in words)", "setting": "[1]", "value": "no agonist activity"}]}, {"molecule": "N=C(N)NCCC[C@@H]1NC(=O)[C@@H]2CCCN2C(=O)[C@H]2CCCN2C(=O)[C@H](Cc2ccccc2)NC(=O)[C@H](Cc2ccccc2)NC(=O)[C@H](CC(N)=O)NC(=O)[C@H](Cc2ccccc2)NC(=O)[C@H](Cc2ccccc2)NC1=O", "note": "[Peptide 20, c[Pro-Arg-Phe-Phe-Asn-Phe-Phe-DPro]]", "values": [{"measurement": "activity at the MC5R (in words)", "setting": "[5]", "value": "partially stimulated"}]}, {"molecule": "CC(C)C[C@@H]1NC(=O)[C@H](CC(N)=O)NC(=O)[C@H](Cc2ccccc2)NC(=O)[C@H](Cc2ccccc2)NC(=O)[C@H](CCCNC(=N)N)NC(=O)[C@@H]2CCCN2C(=O)[C@H]2CCCN2C(=O)[C@H](Cc2ccccc2)NC1=O", "note": "[Peptide 22, c[Pro-Arg-Phe-Phe-Asn-Leu-Phe-DPro]]", "values": [{"measurement": "activity at the MC5R (in words)", "setting": "[5]", "value": "no activity"}]}, {"molecule": "N=C(N)NCCC[C@@H]1NC(=O)[C@@H]2CCCN2C(=O)[C@H]2CCCN2C(=O)[C@H](Cc2ccccc2)NC(=O)[C@H](CO)NC(=O)[C@H](CC(N)=O)NC(=O)[C@H](Cc2ccccc2)NC(=O)[C@H](Cc2ccccc2)NC1=O", "note": "[Peptide 21, c[Pro-Arg-Phe-Phe-Asn-Ser-Phe-DPro]] (cyclo(RFFNSF[dP]P))", "values": [{"measurement": "agonist activity at the MC4R (in words)", "setting": "[3]", "value": "did not possess agonist activity"}, {"measurement": "agonist activity at the MC3R (in words)", "setting": "[4]", "value": "did not possess agonist activity"}, {"measurement": "agonist activity at the MC1R (in words)", "setting": "[1]", "value": "did not possess agonist activity"}]}, {"molecule": "C[C@@H]1NC(=O)[C@H](Cc2c[nH]cn2)NC(=O)[C@H](Cc2ccccc2)NC(=O)[C@H](Cc2ccccc2)NC(=O)[C@H](CCCNC(=N)N)NC(=O)[C@@H]2CCCN2C(=O)[C@H]2CCCN2C(=O)[C@H](Cc2ccccc2)NC1=O", "note": "[Peptide 10, c[Pro-Arg-Phe-Phe-His-Ala-Phe-DPro]]", "values": [{"measurement": "mMC5R inverse agonist, percent decrease from basal", "setting": "[5]", "value": 10, "unit": "%"}, {"measurement": "EC50", "setting": "[2]", "value": 0.01, "unit": "µM"}, {"measurement": "agonist activity at the MC4R (in words)", "setting": "[3]", "value": "no agonist activity"}, {"measurement": "agonist activity at the MC3R (in words)", "setting": "[4]", "value": "no agonist activity"}, {"measurement": "agonist activity at the MC1R (in words)", "setting": "[1]", "value": "no agonist activity"}]}, {"molecule": "N=C(N)NCCC[C@@H]1NC(=O)[C@@H]2CCCN2C(=O)[C@H]2CCCN2C(=O)[C@H](Cc2ccccc2)NC(=O)[C@H](CCCCN)NC(=O)[C@H](CC(N)=O)NC(=O)[C@H](Cc2ccccc2)NC(=O)[C@H](Cc2ccccc2)NC1=O", "note": "[Peptide 18, c[Pro-Arg-Phe-Phe-Asn-Lys-Phe-DPro]]", "values": [{"measurement": "activity at the MC5R (in words)", "setting": "[5]", "value": "partially stimulated"}]}, {"molecule": "CC(C)[C@@H]1NC(=O)[C@H](Cc2ccccc2)NC(=O)[C@H](Cc2ccccc2)NC(=O)[C@H](CCCNC(=N)N)NC(=O)[C@@H]2CCCN2C(=O)[C@H]2CCCN2C(=O)[C@H](Cc2ccccc2)NC(=O)[C@H](C)NC1=O", "note": "[Peptide 13, c[Pro-Arg-Phe-Phe-Val-Ala-Phe-DPro]]", "values": [{"measurement": "EC50", "setting": "[2]", "value": 0.51, "unit": "µM"}, {"measurement": "fold less potent at the MC4R compared to 1", "setting": "[6]", "value": "at least 8 fold"}]}, {"molecule": "C[C@@H]1NC(=O)[C@H](CO)NC(=O)[C@H](Cc2ccccc2)NC(=O)[C@H](Cc2ccccc2)NC(=O)[C@H](CCCNC(=N)N)NC(=O)[C@@H]2CCCN2C(=O)[C@H]2CCCN2C(=O)[C@H](Cc2ccccc2)NC1=O", "note": "[Peptide 5, c[Pro-Arg-Phe-Phe-Ser-Ala-Phe-DPro]]", "values": [{"measurement": "EC50", "setting": "[2]", "value": 0.14, "unit": "µM"}, {"measurement": "agonist activity at the MC4R (in words)", "setting": "[3]", "value": "No agonist activity"}, {"measurement": "agonist activity at the MC3R (in words)", "setting": "[4]", "value": "No agonist activity"}, {"measurement": "agonist activity at the MC1R (in words)", "setting": "[1]", "value": "No agonist activity"}]}, {"molecule": "CC(C)C[C@@H]1NC(=O)[C@H](Cc2ccccc2)NC(=O)[C@H](Cc2ccccc2)NC(=O)[C@H](CCCNC(=N)N)NC(=O)[C@@H]2CCCN2C(=O)[C@H]2CCCN2C(=O)[C@H](Cc2ccccc2)NC(=O)[C@H](C)NC1=O", "note": "[Peptide 12, c[Pro-Arg-Phe-Phe-Leu-Ala-Phe-DPro]] (cyclo(RFFLAF[dP]P))", "values": [{"measurement": "EC50", "setting": "[2]", "value": 0.11, "unit": "µM"}, {"measurement": "fold less potent at the MC4R compared to 1", "setting": "[6]", "value": "at least 8 fold"}]}, {"molecule": "C[C@@H]1NC(=O)[C@H](Cc2c[nH]c3ccccc23)NC(=O)[C@H](Cc2ccccc2)NC(=O)[C@H](Cc2ccccc2)NC(=O)[C@H](CCCNC(=N)N)NC(=O)[C@@H]2CCCN2C(=O)[C@H]2CCCN2C(=O)[C@H](Cc2ccccc2)NC1=O", "note": "[Peptide 15, c[Pro-Arg-Phe-Phe-Trp-Ala-Phe-DPro]] (cyclo(RFFWAF[dP]P))", "values": [{"measurement": "EC50", "setting": "[2]", "value": 0.15, "unit": "µM"}]}, {"molecule": "C[C@@H]1NC(=O)[C@H](Cc2ccccc2)NC(=O)[C@H](Cc2ccccc2)NC(=O)[C@H](Cc2ccccc2)NC(=O)[C@H](CCCNC(=N)N)NC(=O)[C@@H]2CCCN2C(=O)[C@H]2CCCN2C(=O)[C@H](Cc2ccccc2)NC1=O", "note": "[Peptide 14, c[Pro-Arg-Phe-Phe-Phe-Ala-Phe-DPro]]", "values": [{"measurement": "activity at the MC5R (in words)", "setting": "[5]", "value": "no activity"}]}, {"molecule": "cyclo(PRFFHAF[dP]) (SMILES C[C@@H]1NC(=O)[C@H](Cc2c[nH]cn2)NC(=O)[C@H](Cc2ccccc2)NC(=O)[C@H](Cc2ccccc2)NC(=O)[C@H](CCCNC(=N)N)NC(=O)[C@@H]2CCCN2C(=O)[C@H]2CCCN2C(=O)[C@H](Cc2ccccc2)NC1=O)", "note": "[c[Pro-Arg-Phe-Phe-His-Ala-Phe-DPro]]", "values": [{"measurement": "agonist EC50 (cAMP AlphaScreen, HEK293 cells stably expressing the receptor)", "setting": "[7]", "value": "> 100", "unit": "µM"}, {"measurement": "agonist EC50 (cAMP AlphaScreen, HEK293 cells stably expressing the receptor)", "setting": "[8]", "value": "> 100", "unit": "µM"}, {"measurement": "agonist EC50 (cAMP AlphaScreen, HEK293 cells stably expressing the receptor)", "setting": "[9]", "value": "> 100", "unit": "µM"}]}, {"molecule": "cyclo(PRFFTAF[dP]) (SMILES C[C@@H]1NC(=O)[C@H]([C@@H](C)O)NC(=O)[C@H](Cc2ccccc2)NC(=O)[C@H](Cc2ccccc2)NC(=O)[C@H](CCCNC(=N)N)NC(=O)[C@@H]2CCCN2C(=O)[C@H]2CCCN2C(=O)[C@H](Cc2ccccc2)NC1=O)", "note": "[c[Pro-Arg-Phe-Phe-Thr-Ala-Phe-DPro]]", "values": [{"measurement": "agonist EC50 (cAMP AlphaScreen, HEK293 cells stably expressing the receptor)", "setting": "[7]", "value": "> 100", "unit": "µM"}, {"measurement": "agonist EC50 (cAMP AlphaScreen, HEK293 cells stably expressing the receptor)", "setting": "[8]", "value": "> 100", "unit": "µM"}, {"measurement": "agonist EC50 (cAMP AlphaScreen, HEK293 cells stably expressing the receptor)", "setting": "[9]", "value": "> 100", "unit": "µM"}]}, {"molecule": "cyclo(PRFFLAF[dP]) (SMILES CC(C)C[C@@H]1NC(=O)[C@H](Cc2ccccc2)NC(=O)[C@H](Cc2ccccc2)NC(=O)[C@H](CCCNC(=N)N)NC(=O)[C@@H]2CCCN2C(=O)[C@H]2CCCN2C(=O)[C@H](Cc2ccccc2)NC(=O)[C@H](C)NC1=O)", "note": "[c[Pro-Arg-Phe-Phe-Leu-Ala-Phe-DPro]]", "values": [{"measurement": "agonist EC50 (cAMP AlphaScreen, HEK293 cells stably expressing the receptor)", "setting": "[7]", "value": "> 100", "unit": "µM"}, {"measurement": "agonist EC50 (cAMP AlphaScreen, HEK293 cells stably expressing the receptor)", "setting": "[8]", "value": "> 100", "unit": "µM"}, {"measurement": "agonist EC50 (cAMP AlphaScreen, HEK293 cells stably expressing the receptor)", "setting": "[9]", "value": "> 100", "unit": "µM"}]}, {"molecule": "cyclo(PRFFDAF[dP])", "note": "[c[Pro-Arg-Phe-Phe-Asp-Ala-Phe-DPro]]", "values": [{"measurement": "agonist EC50 (cAMP AlphaScreen, HEK293 cells stably expressing the receptor)", "setting": "[7]", "value": "> 100", "unit": "µM"}, {"measurement": "agonist EC50 (cAMP AlphaScreen, HEK293 cells stably expressing the receptor)", "setting": "[8]", "value": "> 100", "unit": "µM"}, {"measurement": "agonist EC50 (cAMP AlphaScreen, HEK293 cells stably expressing the receptor)", "setting": "[9]", "value": "> 100", "unit": "µM"}]}, {"molecule": "cyclo(PRFFEAF[dP])", "note": "[c[Pro-Arg-Phe-Phe-Glu-Ala-Phe-DPro]]", "values": [{"measurement": "agonist EC50 (cAMP AlphaScreen, HEK293 cells stably expressing the receptor)", "setting": "[7]", "value": "> 100", "unit": "µM"}, {"measurement": "agonist EC50 (cAMP AlphaScreen, HEK293 cells stably expressing the receptor)", "setting": "[8]", "value": 20.5, "unit": "µM"}, {"measurement": "agonist EC50 (cAMP AlphaScreen, HEK293 cells stably expressing the receptor)", "setting": "[9]", "value": "> 100", "unit": "µM"}]}]}
